From patent US20140350097A1, “TREATMENT OF HYPOTENSION ASSOCIATED WITH HEMODIALYSIS” (priority 2013, published 2014)

Assays:
[1] = Binding of .NO by NOX-100 in the presence of a metal ion; conditions: in the presence of a metal ion (e.g., iron)
Excerpt: As illustrated in Scheme 1 following, the binding is a two-step process. First, two molecules of NOX-100 combine with Fe^2+ to form a complex, [(NOX)2-Fe], which is held together via the planar coordination of the Fe^2+ by two dithiocarbamates. Next, the [(NOX)2-Fe] complex tightly binds .NO, forming an .NO-containing complex, [(NOX)2-Fe—NO]. See e.g., Yokokawa et al, 1995, Id.; Kang et al, 1997, Id.

[2] = tested on: mice; experiment: Blood pressure studies in mice; type: in vivo
Excerpt: The lack of effect on normal blood pressure is advantageous for NOX-100 as a small molecule .NO scavenger.

[3] = tested on: rat model of shock induced by hemorrhage; experiment: Hemorrhagic shock rat model; type: in vivo; conditions: rats, 0.1 mmol/kg/hour
Excerpt: Treatment of these rats with NOX-100 (0.1 mmol/kg/hour) reduced the blood volume needed to maintain the blood pressure during shock and improved mean arterial pressure after resuscitation.

[4] = tested on: male Wistar rats; experiment: Preliminary acute single dose toxicity study in male Wistar rats; type: in vivo, rat; conditions: single I.V. 30-608 mg/kg or S.C. 250-1,000 mg/kg, 7-day observation
Experimental: NOX-100 has been evaluated in a number of toxicological studies, including acute (single-dose in rats and dogs; 4-day dosing in rats and dogs), subacute (14-day dosing in rats and dogs) studies, and in vitro mutagenicity testing.
In a preliminary acute single dose study, male Wistar rats were administered NOX-100 intravenously (I.V.) at doses of 30-608 mg/kg or subcutaneous (S.C.) doses of 250-1,000 mg/kg. Each dosing was followed by a 7-day observation period. […] Another group of male Wistar rats were administered NOX-100 with Fe^2+ as a single SC dose at 250-1,000 mg/kg. […] Without wishing to be bound by any theory, it is believed that this discoloration was due to the color of the compound at the high dose.

[5] = tested on: albino rats; experiment: Single dose infusion toxicity in albino rats; type: in vivo; conditions: single dose 1000, 1450 or 2000 mg/kg infused over 2 or 8 hours
Experimental: Based on the preliminary I.V. and S.C. studies, doses of 1000, 1450 or 2000 mg/kg of NOX-100 administered over an 8-hour period were tested in albino rats. A total dose of 2000 mg/kg administered over a shorter period of 2 hours was then tested.

[6] = tested on: rats; experiment: 4-day infusion toxicity in rats (2000 mg/kg over 2 hours); type: in vivo, rat
Experimental: The high dose of 2000 mg/kg of NOX-100 administered over a period of 2 hours was again tested in a group of rats for 4 consecutive days. […] Mitotic figures in basophilic tubules were also noted. These changes were considered treatment related. […] It appeared that female rats had lower plasma concentrations of NOX-100 compared to males.

[7] = tested on: beagle dogs; experiment: 14-day infusion toxicity in beagle dogs; type: in vivo
Experimental: Based on the findings from the 4-day study, doses of NOX-100 at 100, 500 and 1000 mg/kg/day infused over a period of 8 hours for 14 days were evaluated in beagle dogs. […] Therefore the high dose of 1000 mg/kg/day was reduced to 250 mg/kg/day on Days 8-14. […] The low dose of 100 mg/kg/day over a period of 8 hours was considered a no-effect level.
The no adverse effect level in dogs (the animal that appeared most sensitive to the effects of NOX-100) was 100 mg/kg given as an 8 hour daily infusion for 14 days. In this study, the NOX-100 was administered as an 11.1 mg/kg bolus loading dose and an 8-hour 11.1 mg/kg/hr infusion maintenance dose.

[8] = Preliminary intravenous pharmacokinetics in dogs; type: in vivo, dog; conditions: bolus injection 30 mg/kg i.v.
Experimental: The pharmacokinetics of intravenously administered NOX-100 was evaluated in mice, rats and dogs. Preliminary pharmacokinetic studies were conducted using a bolus injection of 30 mg/kg. Post injection, the drug was rapidly eliminated in all three species in a bi-exponential manner with a beta-t½ of approximately 6, 30 and 40 minutes in the mouse, rat and dog, respectively. […] The volume of distribution was around 20-30% of body weight and was similar in the three species. This is likely due to the hydrophilic nature of the drug and may reflect the distribution of NOX-100 primarily in the extracellular space.

[9] = tested on: subjects with hypotensive episodes during hemodialysis; experiment: Human clinical dose escalation study in hemodialysis subjects with hypotensive episodes; type: in vivo
Excerpt: In that study, the drug was given to subjects who had at least 3 hypotensive episodes during hemodialysis in the prior month. Subjects received the drug during hemodialysis when systolic blood pressure (SBP) had fallen at least 15 mmHg. The following trends appeared between drug and placebo periods. […] The SBP over this time period averaged 4 mmHg higher for drug than for placebo with a standard deviation of 16 mmHg. […] As hypotension worsened, the patients developed several different symptoms that were not predictable for any given patient. Clinical interventions intended to relieve hypotension were also variable and were applied at inconsistent times from patient to patient. This was a result of long standing practices established by patient and nurse to avoid severe symptoms. For example, patients would sometimes request an intervention that they thought would be helpful and nurses would sometimes institute an intervention when they thought that a blood pressure trend might soon lead to symptoms. It was felt unethical to intervene in this process, since the aim was to avoid patient discomfort.

[10] = 24 hours after hemorrhagic shock
[11] = 2000 mg/kg over 2 hours, 4 consecutive days

SMILES: CN(C[C@H](O)[C@@H](O)[C@H](O)[C@H](O)CO)C(=S)S [NOX-100, N-methyl-D-glucamine dithiocarbamate]
- binding of .NO [1]: binds .NO very tightly
- effect on hypotensive effect of nitroprusside ([2]; co-administration with sodium nitroprusside (.NO donor)): reduced the hypotensive effect of nitroprusside
- effect on blood pressure ([2]; intravenous infusion of NOX-100 alone): did not affect blood pressure
- blood volume needed to maintain the blood pressure during shock [3]: reduced
- mean arterial pressure after resuscitation [3]: improved
- elevation of serum ornithine carbamoyltransferase (indicator of hepatic injury) [3, 10]: prevented
- inflammatory gene expression [3, 10]: prevented
- transcription factor activation [3, 10]: prevented
- mortality and overt signs of toxicity [4]: no mortality or overt signs of toxicity
- mortality [5]: no mortality
- plasma concentrations in female rats compared to males ([6]; 2000 mg/kg): lower
- hemoglobin and hematocrit values [6, 11]: slight decrease
- red blood cell count [6, 11]: slight decrease
- animals with cortical tubular basophilia of the kidney, occasionally with tubular dilatation ([6]; 5 males, 2000 mg/kg/day, 2-hour infusion, 4 consecutive days): 5/5
- plasma concentrations on Day 4 compared to Day 1 ([6]; HPLC, 1 and 1.75 hours after infusion, 2000 mg/kg): slightly higher
- mitotic figures in basophilic tubules ([6]; males, 2000 mg/kg/day, 4 consecutive days): noted
- mortality ([7]; 1000 mg/kg/day, 8-hour infusion): One male dog in the high dose (1000 mg/kg/day) group died on Day 6
- dose concentration relationship ([7]; dog, in vivo): proportional dose concentration relationship
- mean plasma concentration throughout Days 1, 7 and 14 ([7]; dog, in vivo): similar
- mean steady state plasma concentrations, males versus females ([7]; dog, in vivo): no differences
- dose level of initial toxicity as multiple of the no adverse effect level ([7]; dogs): 5 times
- no adverse effect level ([7]; dogs, 8 hour daily infusion for 14 days): 100 mg/kg
- no-effect level ([7]; dogs, over a period of 8 hours, 14 days): 100 mg/kg/day
- mean plasma concentration between 4 to 7.75 hours from the start of infusion ([7]; each day): remained constant
- clinical and laboratory findings accompanied by renal lesions ([7]; generally at 500 or 1000 mg/kg/day): Clinical signs of deterioration, reduction in body weight and food intake together with changes in serum chemistry and creatinine clearance
- histopathological examination of the animal that died ([7]; male, 1000 mg/kg/day): renal lesions consisting of tubular basophilia and dilatation, hyperplasia of the transitional epithelium of the papilla and some vascular hemorrhage or congestion
- clearance ([8]; dog, in vivo, iv, dogs, read-out: clearance rate): 4.1 ± 0.6 mL/min/kg
- volume of distribution ([8]; dogs): 20-30 % of body weight
- half-life ([8]; in vivo, iv, dog, read-out: beta-t½): ~40 min
- clinically significant toxicity ([9]; 7 dose escalations, 4 subjects per group): did not reveal any clinically significant toxicity at any dose
- average SBP difference, drug higher than placebo ([9]; 30 to 120 minutes following drug administration, standard deviation 16 mmHg): 4 mmHg
- heart rate, diastolic blood pressure, number of interventions for low blood pressure or number of symptoms, drug versus placebo periods ([9]; hemodialysis subjects): no apparent differences
- systolic blood pressure (SBP), drug versus placebo ([9]; three highest doses, 30 to 120 minutes following drug administration): trend for SBP to be higher after drug than after placebo
